Legend:
[1] = Pharmacokinetics of Compounds 16, 22 and 23; format: in vivo, SCID/mice; conditions: SCID, mouse, plasma
Experimental: Pharmacokinetics of Compound 16 (Comparative example) prepared in step 3 of Example 2, and mutual prodrugs of Compounds 22 and 23 prepared in Example 3 and 4, respectively, were evaluated in SCID/mice following oral (PO) and intravenous (IV) administration according to the route/dose as shown in Table 4.
Blood samples were collected over 24 hrs, and plasma samples were prepared. Plasma concentrations of the test compounds were analyzed by LC/MS/MS. The maximum plasma concentration (Cmax), exposure (AUC), bioavailability (F %), half-life (T1/2), clearance (CL), volume of distribution (Vss), time when the maximal serum concentration of compound is achieved (Tmax) and mean residence time (MRT) were calculated as were in Test Example 3.

[2] = system: MOLT-4 xenograft; assay: Tumor growth inhibition of Compounds 22 and 23 in MOLT-4 xenograft; format: in vivo, mice
[3] = biological target: T1, recombinant human cytidine deaminase (CDA) (Homo sapiens, UniProt P32320); assay: Cytidine deaminase (CDA) assay; format: biochemical
T1 construct: His6; host or cells: E. coli

[4] = system: MV-4-11 (human biphenotypic B myelomonocytic leukemia); assay: Anti-proliferative activity test (CellTiter-Glo), MV-4-11; format: cell-based; conditions: MV-4-11, hematological
Experimental: (§1) Six hundred cells in 90 media were plated per well in duplicates in a 96-well plate. Cells were incubated in a humidified incubator at 37° C. with 5% CO2 during the assay. DMSO was added to the test compounds with the final DMSO concentration being 0.1% [v/v] of the culture. 100 μl of CellTiter-Glo® was added to the equal volume of cultured cells to read luminescence in EnVision Multi Label Reader.

[5] = system: Hep G2 (human hepatocellular carcinoma); assay: Anti-proliferative activity test (CellTiter-Glo), Hep G2; format: cell-based; conditions: Hep G2, liver cancer
Experimental: as §1

[6] = system: HL-60 (human acute promyelocytic leukemia); assay: Anti-proliferative activity test (CellTiter-Glo), HL-60; format: cell-based; conditions: HL-60, hematological
Experimental: as §1

[7] = system: MOLT-4 (human acute lymphoblastic leukemia); assay: Anti-proliferative activity test (CellTiter-Glo), MOLT-4; format: cell-based; conditions: MOLT-4, hematological
Experimental: as §1

[8] = system: HCT 116 (human colorectal carcinoma); assay: Anti-proliferative activity test (CellTiter-Glo), HCT 116; format: cell-based; conditions: HCT 116, colon cancer
Experimental: as §1

[9] = system: HL-60 human leukemia xenograft; assay: Tumor growth inhibition of IP-administered Compound 12 in HL-60 human leukemia xenograft; format: in vivo, NOD/SCID female mice
Experimental: Tumor growth inhibition activities of IP-administered Ara-C and Compound 12 were compared in HL-60 human leukemia xenograft.
NOD/SCID female mice of 6-8 weeks age and weighing approximately 18 to 22 g, were used for tumor inoculation. Each mouse was inoculated subcutaneously at the right flank with HL-60 tumor cells (1×10^7 cells) in mixture of 100 μl of PBS and 100 of μl Matrigel™ for tumor development. Eight mice were used for each group (n=8/group). The amounts of treated compounds are represented in milligram (mg) of compound per kilogram (kg) of animal body weight (mg/kg, mpk). Administration route of all test compounds was through IP injection. […] The overall administration schedule was 2 cycles of compound treatment for 5 days, followed by 2 days of non-treatment. Tumor sizes were measured using a caliper, once every 4 days, and the tumor volume was expressed in mm^3 using Equation 1.
The tumor volume (mm^3) and body weight (g) results of five groups are shown in FIGS. 5A and 5B, respectively.

[10] = Mouse pharmacokinetics of Compound 12; format: in vivo, ICR mice; conditions: ICR, plasma, 10 mg/kg
Experimental: (§2) Pharmacokinetics of Compound 12 prepared in Example 1 were evaluated in ICR mice and SD rats following intravenous (IV) administration at 10 mg/kg and peroral (PO) administration at 10 mg/kg dose level, respectively.
(§3) For serum compound analysis, blood samples were collected by cardiac puncture over 24 hr time course. 20 μl of spiked plasma was added into 96 well plate, adding ten volumes of internal standard (IS) in acetonitrile (ACN) to precipitate proteins, mixed fully, centrifuged for 10 min at 4,000 rpm. 150 μl of supernatant was transferred to another pre-labeled 96 well plate, mixed with 150 μl of water, then injected 5 μl or 10 μl into the liquid chromatography-mass spectrometry (LC-MS) system under the following conditions:
(§4) Column: API-4000+Waters UPLC (TCLM08);
(§5) Lower limit of quantification (LLOQ) was at 1 ng/mL. Pharmacokinetic parameters of half-life (T1/2), clearance (CL), maximum plasma concentration (Cmax), time when the maximal serum concentration of compound is achieved (Tmax) and bioavailability (F %), exposure (AUC) and volume of distribution (Vss) of the compound were calculated using Phoenix WinNonlin 6.3 (non-compartmental model).

[11] = system: HL-60 human leukemia xenograft; assay: Efficacy of PO-administered Compound 12 in HL-60 human leukemia xenograft; format: in vivo, NOD/SCID female mice; conditions: 5 d ON/2 d Off × 2
Experimental: Tumor growth inhibition (TGI) activities of IP-administered Ara-C, and PO-administered Compound 12 were compared in HL-60 human leukemia xenografts.
NOD/SCID female mice of 6-8 weeks age and weighing approximately 18 to 22 g, were used for tumor inoculation. Each mouse was inoculated subcutaneously at the right flank with HL-60 cancer cells (1×10^7 cells) in mixture of 100 μl of PBS and 100 μl of Matrigel™ for tumor development. Eight mice were used for each group (n=8/group). The amounts of treated compounds are represented in milligram (mg) of compound per kilogram (kg) of animal body weight (mg/kg, mpk). Administration route of the test compound was either intraperitoneal (IP) injection or peros (PO, oral) injection. […] The overall administration schedule was 2 cycles of treatment for 5 days (5 d ON), followed by 2 days of non-treatment (2 d OFF). Tumor sizes were measured using a caliper, once every 4 days, and the tumor volume was expressed in mm^3 using Equation 1: V=0.5a×b^2 [Equation 1]
Wherein, a and b are the long and short diameters of the tumor, respectively.
The tumor volume (mm^3) and body weight (g) results of the three groups are shown in FIGS. 4A and 4B, respectively.

[12] = Rat pharmacokinetics of Compound 12; format: in vivo, SD rats; conditions: SD, plasma, 10 mg/kg
Experimental: as §2, §3, §4, §5

[13] = 150 mpk, 5 d ON/2 d OFF × 2, FIG. 6

T1 sequence (P32320 whole entry): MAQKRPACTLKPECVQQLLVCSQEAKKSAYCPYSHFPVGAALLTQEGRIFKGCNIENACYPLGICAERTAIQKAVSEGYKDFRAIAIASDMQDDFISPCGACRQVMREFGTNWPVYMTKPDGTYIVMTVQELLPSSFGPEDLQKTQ

Row | Compound | AUC ([1]; 75 mg/kg, PO/75 mpk) | Cmax ([1]; 75 mg/kg, PO/75 mpk) | AUC ([1]; 150 mg/kg, PO/150 mpk) | Cmax ([1]; 150 mg/kg, PO/150 mpk) | MRT ([1]; 150 mg/kg, PO/150 mpk) | Tmax ([1]; 150 mg/kg, PO/150 mpk) | bioavailability ([1]; 150 mg/kg, PO/150 mpk) | half-life ([1]; 150 mg/kg, PO/150 mpk) | TGI [2, 13] | IC50 ([4]; Homo sapiens, MV4-11) | TGI (%) ([9]; 60 mpk) | IC50 ([5]; Homo sapiens, HepG2) | IC50 ([6]; Homo sapiens) | IC50 ([7]; Homo sapiens) | IC50 ([8]; Homo sapiens) | also measured
1 | O=c1ncccn1[C@@H]1O[C@H](CO)[C@@H](O)[C@H]1O [Compound 16, 1-((2R,3R,4S,5R)-3,4-dihydroxy-5-(hydroxymethyl)tetrahydrofuran-2-yl)pyrimidin-2(1H)-one, reference compound] | – | – | – | – | – | – | – | – | – | – | – | – | – | – | – | AUC ([1]; 100 mg/kg, IV/100 mpk): 54600 ng·h/mL; clearance ([1]; 100 mg/kg, IV/100 mpk): 30.2 mL/min/kg; half-life ([1]; 100 mg/kg, IV/100 mpk): 2.03 h; Vd ([1]; 100 mg/kg, IV/100 mpk, read-out: Vss): 0.91 L/kg; AUC ([1]; 500 mg/kg, PO/500 mpk): 20900 ng·h/mL; Cmax ([1]; 500 mg/kg, PO/500 mpk): 22.3 µM; bioavailability ([1]; 500 mg/kg, PO/500 mpk): 8.4%; half-life ([1]; 500 mg/kg, PO/500 mpk): 2.44 h; TGI ([2]; zebularine, dose not stated, FIG. 6): 10%
2 | CC(C)C(=O)OC[C@H]1O[C@@H](n2cccnc2=O)[C@H](OC(=O)C(C)C)[C@@H]1OC(=O)C(C)C [Compound 23, (2R,3R,4R,5R)-2-((isobutyryloxy)methyl)-5-(2-oxopyrimidin-1(2H)-yl)tetrahydrofuran-3,4-diyl bis(2-methylpropanoate)] | 1800 ng·h/mL | 5.3 µM | 6500 ng·h/mL | 30.7 µM | 1.3 h | 0.5 h | 16% | 4.9 h | 40% | – | – | – | – | – | – | –
3 | N#C[C@@]1(n2ccc(N)nc2=O)O[C@H](CO)[C@@H](O)[C@@H]1O [Compound 11] | – | – | – | – | – | – | – | – | – | – | – | – | – | – | – | susceptibility to deamination by CDA [3]: resistant to deamination by CDA; Relative rxn velocity ([3]; 0.01 mM substrate, 25° C., OD282, relative to cytidine): <0.01; IC50 [4]: 5000 nM; IC50 [5]: 6000 nM; IC50 [6]: 2410 nM; IC50 [7]: 1060 nM; IC50 [8]: 960 nM
4 | CCCC(=O)OC[C@H]1O[C@@](C#N)(n2ccc(N)nc2=O)[C@@H](O)[C@@H]1O [Compound 12, ((2R,3S,4S,5R)-5-(4-amino-2-oxopyrimidin-1(2H)-yl)-5-cyano-3,4-dihydroxytetrahydrofuran-2-yl)methyl Butyrate] | – | – | – | – | – | – | – | – | – | 130 nM | 59% | 560 nM | 5060 nM | 1140 nM | 220 nM | TGI (%) ([9]; 20 mpk): 36%; TGI (%) ([9]; 40 mpk): 46%; clearance ([10]; IV): 21.6 mL/min/kg; half-life ([10]; IV): 3.1 h; bioavailability ([10]; PO): 62%; half-life ([10]; PO): 4.6 h; % BW change ([11]; 60 mpk, PO): −0.9%; % TGI ([11]; 60 mpk, PO): 50%; clearance ([12]; IV): 11.4 mL/min/kg; half-life ([12]; IV): 3.1 h; bioavailability ([12]; PO): 48.8%; half-life ([12]; PO): 2.5 h
5 | Nc1ccn([C@@H]2O[C@H](CO)[C@@H](O)[C@@H]2O)c(=O)n1 [Ara-C, cytarabine] | – | – | – | – | – | – | – | – | – | 3100 nM | 60% | 1910 nM | 630 nM | 20 nM | 290 nM | % BW change ([11]; 40 mpk, IP): −6.2%; % TGI ([11]; 40 mpk, IP): 46%
6 | CCCC(=O)OC[C@H]1O[C@@H](n2cccnc2=O)[C@H](OC(=O)CCC)[C@@H]1OC(=O)CCC [Compound 22, (2R,3R,4R,5R)-2-((butyryloxy)methyl)-5-(2-oxopyrimidin-1(2H)-yl)tetrahydrofuran-3,4-diyl Dibutyrate] | 500 ng·h/mL | 0.88 µM | 1100 ng·h/mL | 4.4 µM | 1.2 h | 0.5 h | 2.7% | 1.6 h | 40% | – | – | – | – | – | – | –

From patent publication US10500224B2, “Mutual prodrug comprising short chain fatty acids and zebularine or 1'-cyano-cytarabine for cancer treatment” (KAINOS MEDICINE, INC., priority 2013, dated 2019)
